# Results taken from patent publication US9408871B2, “Methods for inhibiting complement activation and uses thereof” (THE UNIVERSITY OF BRITISH COLUMBIA, priority 2013, dated 2016).
# Experiments:
# [1] = test system: total complement-mediated hemolytic activity; assay: total complement-mediated hemolytic activity assay (4.5% NHS, rabbit erythrocytes); format: cell-based, human; details: rRBC, 30 min, read-out: IC50 (concentration required to achieve half maximal inhibition of lysis), total hemolytic activity
# Source text: Erythrocyte lysis assays were used to measure complement-mediated hemolytic activity. Erythrocyte (RBC) lysis assays as previously described^18,37 were used to measure complement activity. For alternative pathway assays and for total hemolytic activity assays, unsensitized rabbit erythrocytes were used. Chicken erythrocytes were used for the terminal pathway assays.
# Erythrocytes were washed three times in GVB with the reaction buffers as indicated, and counted using the Advia 120 Hematology System from Siemens (Siemens, Erlangen, Germany). Reactions in 300 μL were allowed to proceed for 30 min at 37° C., after which unlysed cells were pelleted by centrifugation at 600×g. Erythrocyte lysis, reflected by the released hemoglobin in the supernatant, was quantified by measuring the absorbance at 405 nm using the Mithras LB 940 microplate reader from Berthold Technologies (Bad Wildbad, Germany). Percent lysis was determined relative to the control of 100% lysis with H2O. […]
# For total hemolytic activity assays, normal human serum (NHS) (4.5%), polyphosphate, and rabbit erythrocytes (rRBC) (6.0×10^7 cells/mL) were added sequentially to initiate lysis. […] Increasing absorbance corresponds to increasing hemoglobin release from lysed red blood cells. The linear region of the curve was determined to be between 20-80% lysis, corresponding to 2.5-4.5% serum. […]
# [2] = test system: C5b,6, C5, C6, C7, thrombin; assay: differential scanning fluorimetry (DSF), all proteins tested; format: binding; details: 1 mM
# Method: For DSF, 25 μL reaction mixes consisting of 0.4 mg/mL protein (0.14 mg/mL for C5b,6), varying concentrations of polyphosphate diluted in HBS (20 mM HEPES, 150 mM NaCl, pH 7.4), and 5× SYPRO Orange were loaded into MicroAmp Fast Optical 96-well Reaction Plates (Applied Biosystems). Samples were heat denatured in an Applied Biosystems StepOnePlus Real-Time PCR System using a ramp configuration starting at 25° C. and increasing at 1 C.° min^−1 to 95° C. Fluorescence (in relative fluorescence units, RFU) was measured every 30 seconds^38. Data for each curve were normalized to the maximum and the minimum of the curve.
# In another approach, differential scanning fluorimetry (DSF) was used to determine the thermal stability of the complement proteins in the presence and absence of polyphosphate. This technique involves heat-denaturing proteins and exposing internal hydrophobic regions to the aqueous environment, which are detected by the fluorescent dye SYPRO Orange^38. Interactions between a protein and a binding partner often change the thermal stability of the protein, observed as a shift in the melting (denaturation) curve. C5b,6, C5, C6, and C7 were individually incubated with a range of concentrations of polyphosphate>1000 and relative fluorescence (RFU) was measured as the proteins were thermally denatured. An increase in RFU indicates protein denaturation. […]
# [3] = test system: retinal pigmented epithelial cells (ARPE-19); assay: protection against H2O2 oxidative stress, microscopy; format: cell-based, human; details: 100 μM to 1000 μM, H2O2 24 hours
# Method: Using cultured cell lines as models of choroidal endothelial cells (CEC; RF/6A)^73 and retinal pigmented epithelial cells (ARPE-19)^74, we tested whether polyphosphate (polyP) could protect against stress-induced alterations in cell survival and deposition of terminal complement activation products (C5b-9).
# CEC (FIG. 21) or ARPE-19 (FIG. 22) cells were grown to ˜80% confluence in DMEM+10% serum, and then incubated with varying concentration of hydrogen peroxide (H2O2) for 24 hours in the presence of varying concentrations of polyP1000.
structure (smiles),measurement,setting,value
"O=P(O)(O)O [P1, Orthophosphate]",IC50,[1],~3.5 mM
same,effect on thermal stability (DSF),[2],had no effect on the thermal stability
same,"protective effect against H2O2 oxidative stress, ARPE-19",[3],No effect was observed
